pIC50: −log10 of the molar value. Read-outs that look alike come from different tables or passages of the source.
How the values were obtained:
[1] = PAMPA, 5 h, 10 μM, pH 7.4
Experimental: The target concentration in the assay was 10 μM, prepared by diluting (1000-fold) the 10 mM stock solutions in DMSO into PBS, pH 7.4. The final DMSO concentration was 0.1%. The 10 μM solutions were added, 300 μL, to wells in the donor plate. The receiver plate, which contained 200 μL of PBS, pH 7.4 per well, was placed in the donor plate and the assembly was incubated for 5 hours at ambient temperature. At the end of the incubation period the plates were separated and the compound concentrations in each solution were determined by LC/MS/MS. The assay was performed in triplicate.
C0 is the initial concentration in the donor well (μM)
CD(t) is the concentration in the donor well after incubation (μM)
CA(t) is the concentration in the acceptor well after incubation (μM)
VD is the volume in the donor well (0.3 mL)
VA is the volume in the acceptor well (0.2 mL)
CE is (CD(t)VD+CA(t)VA)/(VD+VA)
A is the filter area (0.3 cm2)
t is the incubation time (18,000 s).

[2] = Hepatic microsomal stability, rat; assay type: in vitro ADME, rat (Sprague-Dawley)
Experimental: (§1) Hepatic microsmal assays were performed with compound 5114 in human and rat (Sprague-Dawley). Protein concentrations of 0.4 (human) and 0.2 mg/mL (rat) with an NADPH regenerating cofactor system (2.6 mM NADP+, 6.6 mM glucose-6-phosphate, 0.8 U/mL glucose-6-phosphate dehydrogenase, and 6.6 mM magnesium chloride) were used. A 100 μM 20% DMSO/80% acetonitrile working stock of each of the compounds was diluted 100 fold resulting in 1 μM compound/1% final organic reaction concentrations. Time points were removed at 0 and 60 minutes. At each time point, 100 μL of the incubation suspension was added to 200 μL of acetonitrile containing internal standard (tolbutamide), followed by centrifugation at 3,220 rcf for 10 minutes. Two hundred (200) μL of the resulting supernatants were removed, dried under nitrogen and reconstituted in 100 μL of 2 mM ammonium acetate, 0.1% formic acid in 50% methanol prior to analysis by LC/MS/MS. Testosterone and dexamethasone were used as reference compounds.

[3] = Hepatic microsomal stability, human; assay type: in vitro ADME
Experimental: as §1

[4] = system: different kinases; test: Kinase activity screening by Millipore UK Ltd, percent kinase activity at 300 nM of compound (Table 31); assay type: biochemical
Experimental: Protocols for Kinase Activity Screening: Kinase screening was performed by Millipore UK Ltd. Kinase dilution buffer composition: 20 mM MOPS, 1 mM EDTA, 0.01% Brij-35, 5% Glycerol, 0.1% b-mercaptoethanol, 1 mg/mL BSA.

[5] = system: Caco-2 cells; test: Inhibition of Caco-2 cells (MTS cell proliferation); assay type: cell-based; settings: for inhibition at 0.4 µM / inhibition at 0.8 µM / inhibition at 1.6 µM / inhibition at 3.2 µM / inhibition at 6.25 µM / inhibition at 12.5 µM / inhibition at 25 µM / inhibition at 50 µM / inhibition at 100 µM / pIC50: Homo sapiens; for inhibition at 0.4 µM: 0.400 μM; for inhibition at 0.4 µM / inhibition at 0.8 µM / inhibition at 1.6 µM / inhibition at 3.2 µM / inhibition at 6.25 µM / inhibition at 12.5 µM / inhibition at 25 µM / inhibition at 50 µM / inhibition at 100 µM: 72 hours; for inhibition at 0.8 µM: 0.800 μM; for inhibition at 1.6 µM: 1.600 μM; for inhibition at 3.2 µM: 3.200 μM; for inhibition at 6.25 µM: 6.250 μM; for inhibition at 12.5 µM: 12.500 μM
Experimental: Inhibition of Caco-2 Cells Cells: Caco-2 cells, ATCC Passage 33, Mycoplasma free. Medium: DMEM Medium (GIBCO Cat #11995073) supplemented with 10% fetal bovine serum (Hyclone Cat #SH30396.03). Seeding: 3,000 cells/well (100 μL) into 96-wells plate, incubated overnight at 37° C. in a humidified, 5% CO2 atmosphere. […] Fifty microliters (50 μL) of diluted compounds were added into each well. The final concentrations of the positive control and test compounds were shown in the graphs. The cells were incubated for 72 hours after addition of the test compounds. MTS: 15 uL of MTS solution (Promega Cat #G5430) was added into each well and incubated with cells for 4 hours at 37° C. in a humidified, 5% CO2 atmosphere. Measurement: Absorbance at 490 nm was measured using MD Spectramax Plus384 spectrophotometer. The regression curves were calculated by the GraphPad Prism 5 using “log(inhibitor) vs response—variable slope”. Calculation: % of inhibition=(ODzero ctrl−OD compound)/ODzero ctrl*100.

[6] = replicate 1, read-out: % of inhibition 1
[7] = replicate 2, read-out: % of inhibition 2

For `C[C@@H]1C[C@H]2[C@@H]3CCC4=CC(=O)C=C[C@]4(C)[C@@]3(F)[C@@H](O)C[C@]2(C)[C@@]1(O)C(=O)CO` [Dexamethasone], the “Mass Retention R” value [1] was 9%, the “% remaining after incubation, Rat Microsomes” value ([2]; Sprague-Dawley, rat, microsomes, 1 h, 1 μM) was 91% and the “% remaining after incubation, Human Microsomes” value ([3]; human, microsomes, 1 h, 1 μM) was 85%.

With `Nc1ccc2c(c1)CN(c1nccc(/C=C3\NC(=O)NC3=O)n1)CC2` [Example 64, (Z)-5-((2-(7-amino-3,4-dihydroisoquinolin-2(1H)-yl)pyrimidin-4-yl)methylene)imidazolidine-2,4-dione] the “Percent Kinase Activity of Enzyme CK1” value [4] was 81%, the “Percent Kinase Activity of Enzyme CK1g2” value [4] was 75% and the “Percent Kinase Activity of Enzyme CK2” value [4] was 65%. The “Percent Kinase Activity of Enzyme Pim-1” value [4] was 83%, the “Percent Kinase Activity of Enzyme Pim-2” value [4] was 81% and the “Percent Kinase Activity of Enzyme Pim-3” value [4] was 97%.

With `NCC1CCN(c2nccc(/C=C3\NC(=O)NC3=O)n2)CC1` [Example 65, (Z)-5-((2-(4-(aminomethyl)piperidin-1-yl)pyrimidin-4-yl)methylene)imidazolidine-2,4-dione] the “Percent Kinase Activity of Enzyme CK1” value [4] was 97%, the “Percent Kinase Activity of Enzyme CK1g2” value [4] was 96% and the “Percent Kinase Activity of Enzyme CK2” value [4] was 94%. For the same molecule, the “Percent Kinase Activity of Enzyme Pim-1” value [4] was 92%, the “Percent Kinase Activity of Enzyme Pim-2” value [4] was 78% and the “Percent Kinase Activity of Enzyme Pim-3” value [4] was 76%.

For `Nc1cccc2c1CCN(c1nccc(/C=C3\NC(=O)NC3=O)n1)C2` [Example 66, (Z)-5-((2-(5-amino-3,4-dihydroisoquinolin-2(1H)-yl)pyrimidin-4-yl)methylene)imidazolidine-2,4-dione], the “Percent Kinase Activity of Enzyme CK1” value [4] was 98%, the “Percent Kinase Activity of Enzyme CK1g2” value [4] was 77% and the “Percent Kinase Activity of Enzyme CK2” value [4] was 78%. For the same molecule, the “Percent Kinase Activity of Enzyme Pim-1” value [4] was 91%, the “Percent Kinase Activity of Enzyme Pim-2” value [4] was 86% and the “Percent Kinase Activity of Enzyme Pim-3” value [4] was 96%.

In the case of `CN(c1nccc(/C=C2\NC(=O)NC2=O)n1)[C@H]1CCCNC1` [Example 67, (S,Z)-5-((2-(methyl(piperidin-3-yl)amino)pyrimidin-4-yl)methylene)imidazolidine-2,4-dione], the “Percent Kinase Activity of Enzyme CK1” value [4] was 104%, the “Percent Kinase Activity of Enzyme CK1g2” value [4] was 111% and the “Percent Kinase Activity of Enzyme CK2” value [4] was 94%. The “Percent Kinase Activity of Enzyme Pim-1” value [4] was 98%, the “Percent Kinase Activity of Enzyme Pim-2” value [4] was 99% and the “Percent Kinase Activity of Enzyme Pim-3” value [4] was 114%.

For `O=C1NC(=O)/C(=C/c2ccnc(N3CCC(CNCc4ccc5ccccc5n4)CC3)n2)N1` [Example 68, (Z)-5-((2-(4-(((quinolin-2-ylmethyl)amino)methyl)piperidin-1-yl)pyrimidin-4-yl)methylene)imidazolidine-2,4-dione], the “Percent Kinase Activity of Enzyme CK1” value [4] was 97%, the “Percent Kinase Activity of Enzyme CK1g2” value [4] was 84% and the “Percent Kinase Activity of Enzyme CK2” value [4] was 109%. For the same molecule, the “Percent Kinase Activity of Enzyme Pim-1” value [4] was 75%, the “Percent Kinase Activity of Enzyme Pim-2” value [4] was 69% and the “Percent Kinase Activity of Enzyme Pim-3” value [4] was 63%.

For `O=C1NC(=O)/C(=C/c2ccnc(N3CCC(CNCc4cccc(-c5ccsc5)n4)CC3)n2)N1` [Example 69, (Z)-5-((2-(4-((((6-(thiophen-3-yl)pyridin-2-yl)methyl)amino)methyl)piperidin-1-yl)pyrimidin-4-yl)methylene)imidazolidine-2,4-dione], the “Percent Kinase Activity of Enzyme CK1” value [4] was 92%, the “Percent Kinase Activity of Enzyme CK1g2” value [4] was 76% and the “Percent Kinase Activity of Enzyme CK2” value [4] was 106%. For the same molecule, the “Percent Kinase Activity of Enzyme Pim-1” value [4] was 46%, the “Percent Kinase Activity of Enzyme Pim-2” value [4] was 86% and the “Percent Kinase Activity of Enzyme Pim-3” value [4] was 59%.

`CNC(=O)c1cc(Oc2ccc(NC(=O)Nc3ccc(Cl)c(C(F)(F)F)c3)cc2)ccn1` [Sorafenib] showed an inhibition at 0.4 µM [5, 6] of 0.049%, an inhibition at 0.4 µM [5, 7] of 0.315% and an inhibition at 0.8 µM [5, 6] of 9.97%. The inhibition at 0.8 µM [5, 7] was 6.24%, the inhibition at 1.6 µM [5, 6] was 14.3% and the inhibition at 1.6 µM [5, 7] was 11.4%. The inhibition at 3.2 µM [5, 6] was 17%, the inhibition at 3.2 µM [5, 7] was 9.39% and the inhibition at 6.25 µM [5, 6] was 19.9%. It also gave an inhibition at 6.25 µM [5, 7] of 23.5%, an inhibition at 12.5 µM [5, 6] of 76.8% and an inhibition at 12.5 µM [5, 7] of 76.3%. It also gave an inhibition at 25 µM [5, 6] of 100%, an inhibition at 25 µM [5, 7] of 98.5% and an inhibition at 50 µM [5, 6] of 102%. The inhibition at 50 µM [5, 7] was 99%, the inhibition at 100 µM [5, 6] was 84.1% and the inhibition at 100 µM [5, 7] was 96.7%. For the same molecule, the pIC50 ([5]; Table 18, read-out: Caco-2* 50% inhibition concentration) was 5.06, the pIC50 ([5]; Table 26, 72 hours, read-out: 50% viability conc.) was 5.06 and the pIC50 ([5]; Table 26, 72 hours, read-out: IC50) was 5.03. For the same molecule, the Maximal inhibition % ([5]; Table 26, 72 hours) was 100%.

For `C[C@]12CC[C@H]3[C@@H](CCC4=CC(=O)CC[C@@]43C)[C@@H]1CC[C@@H]2O` [Testosterone], the “% remaining after incubation, Rat Microsomes” value ([2]; 1 μM compound, 0.2 mg/mL protein, NADPH regenerating system, 60 minutes) was 0.6% and the “% remaining after incubation, Human Microsomes” value ([3]; 1 μM compound, 0.4 mg/mL protein, NADPH regenerating system, 60 minutes) was 42%.

— patent publication US9073903B2, “Imidazole-2,4-dione inhibitors of casein kinase 1” (Jasco Pharmaceuticals, LLC, priority 2010, dated 2015)
